According to US7951595B2, “Methods for screening modulators of SLC17-type anion transport activity” (National University Corporation Okayama University, priority 2007, dated 2011):

What was measured:
mouse SLC17A9 (mSLC17A9) = target: T1, mouse SLC17A9 (mSLC17A9) (Mus musculus, UniProt Q8VCL5); assay: ATP transport by reconstituted mSLC17A9 protein proteoliposomes; assay type: biochemical; settings: added at 2 mM, uptake for 2 minutes, FIG. 22
T1 construct: His6 (from pDEST10 vector) (N); made in house; host or cells: insect cells, baculovirus system (Sf9 named for virus production)
T1 sequence (Q8VCL5 1-447): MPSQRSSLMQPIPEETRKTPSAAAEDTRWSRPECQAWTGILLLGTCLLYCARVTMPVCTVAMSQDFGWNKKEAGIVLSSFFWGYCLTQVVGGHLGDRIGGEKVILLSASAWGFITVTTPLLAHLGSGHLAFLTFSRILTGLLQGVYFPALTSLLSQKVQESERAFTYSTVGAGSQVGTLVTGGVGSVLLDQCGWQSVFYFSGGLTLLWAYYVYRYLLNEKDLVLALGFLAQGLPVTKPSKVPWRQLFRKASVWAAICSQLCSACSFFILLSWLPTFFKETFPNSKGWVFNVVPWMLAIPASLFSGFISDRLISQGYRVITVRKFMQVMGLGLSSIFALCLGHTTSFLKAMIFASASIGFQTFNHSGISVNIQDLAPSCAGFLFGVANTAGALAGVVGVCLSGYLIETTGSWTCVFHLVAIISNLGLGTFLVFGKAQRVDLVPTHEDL
Description: 20 μg of the purified mSLC17A9 protein and 0.5 mg of soybean-derived lipids were mixed, and the mixture was incubated at −80° C. for 5 minutes or longer. This mixture was thawed quickly by holding the tube in the hands, and was diluted 30-fold with a buffer solution containing 20 mM MOPS-Tris (pH 7.0), 0.15M sodium acetate, 2 mM magnesium acetate and 0.5 mM DTT. This dilution was centrifuged at 200,000×g at 4° C. for one hour, the supernatant was discarded, and the precipitate was resuspended in a buffer solution containing 20 mM MOPS-Tris (pH 7.0), 0.15M sodium acetate, 2 mM magnesium acetate and 0.5 mM DTT, to achieve reconstitution. […] The mixture was further incubated for 2 minutes. […] Furthermore, in an inhibitor test, an inhibitor at a predetermined concentration was added in the case of incubating the proteoliposomes.

human SLC17A9 = target: T2, human SLC17A9 (Homo sapiens, UniProt Q9BYT1, N228S); assay: Nucleotide transport by human SLC17A9 reconstituted proteoliposomes (valinomycin-induced membrane potential, radiolabelled substrate); assay type: biochemical; settings: for uptake of ADP and GTP into SLC17A9 reconstituted proteoliposomes over time: 100 μM each, FIG. 16; for effect of nucleotides on ATP transport: nucleotide 1 mM, FIG. 15
T2 construct: His6 (from pDEST10 vector); made in house; host or cells: insect cells, baculovirus system (Sf9 named for virus production)
T2 sequence (Q9BYT1 1-430 isoform Q9BYT1-2 N222S): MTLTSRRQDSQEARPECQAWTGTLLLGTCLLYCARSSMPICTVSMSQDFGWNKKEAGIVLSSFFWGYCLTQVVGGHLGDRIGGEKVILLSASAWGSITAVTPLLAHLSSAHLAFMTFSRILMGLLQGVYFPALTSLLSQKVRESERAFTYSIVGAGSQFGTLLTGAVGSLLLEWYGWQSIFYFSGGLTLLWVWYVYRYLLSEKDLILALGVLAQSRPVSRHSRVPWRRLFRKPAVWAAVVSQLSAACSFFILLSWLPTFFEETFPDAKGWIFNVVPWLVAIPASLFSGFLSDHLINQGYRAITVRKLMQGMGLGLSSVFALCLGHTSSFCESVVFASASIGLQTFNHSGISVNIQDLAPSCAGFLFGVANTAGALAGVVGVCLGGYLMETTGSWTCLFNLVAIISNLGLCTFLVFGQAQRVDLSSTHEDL
Description: 10 μg of purified SLC17A9 and 0.5 mg of soybean-derived lipids were mixed and incubated at −80° C. for 5 minutes or more. The mixture was thawed quickly by holding the tube in the hands, and was diluted 60-fold with a buffer solution containing 20 mM MOPS-Tris (pH 7.0), 0.15M sodium acetate, 2 mM magnesium acetate and 0.5 mM DTT. This dilution was centrifuged at 200,000×g at 4° C. for one hour, the supernatant was discarded, and the precipitate was resuspended in a buffer solution containing 20 mM MOPS-Tris (pH 7.0), 0.15M sodium acetate, 2 mM magnesium acetate and 0.5 mM DTT, to obtain SLC17A9 reconstituted proteoliposomes. As a control, liposomes without SLC17A9 were used.
The nucleotide transport activity was measured by the following procedure. The reconstituted proteoliposomes were incubated in a buffer solution containing 20 mM MOPS-Tris (pH 7.0), 0.15M potassium acetate, 2 mM magnesium acetate and 4 mM potassium chloride, at 27° C. for 2 minutes, and valinomycin was added thereto to a final concentration of 2 μM. The mixture was incubated for further 2 minutes. The point of addition of 0.1 mM [α-^32P]ATP (3.7 GBq/mmol) was defined as the initiation of activity measurement. At a predetermined time point, 130 μL of the reaction liquid was recovered and centrifuged through a Sephadex G-50 (fine) spin column at 760×g for 2 minutes. The uptake of ATP was measured by measuring the radioactivity included in the reaction liquid that had passed through the column using a liquid scintillation counter. In the measurement of the transport activity for ADP and GTP, [2,8-^3H]ADP (0.37 GBq/mmol) and [α-^32P]GTP (3.7 GBq/mmol) were used instead of ATP as the substrate.
In an experiment for an inhibitor, a predetermined concentration of an inhibitor was added upon incubation of the proteoliposomes.

SLC17A9 mRNA = assay: Knockdown of SLC17A9 by RNAi, SLC17A9 mRNA by real-time PCR; assay type: cell-based; settings: 25 nM rat SLC17A9 siRNA, cultured 3 days, versus control siRNA, FIG. 19(A)
Description: (§1) Knockdown of SLC17A9 by RNAi was carried out as follows. A sequence for RNAi designed by Qiagen HP OnGuard siRNA Design was used. The nucleic acid sequence of the RNAi used was […] (SEQ ID NO: 15). This sequence and HiPerFect transfection reagent (Qiagen) were used for transfection of 25 nM AllStars negative control siRNA or 25 nM rat SLC17A9 siRNA, and the resultant was cultured for 3 days, to thereby perform knockdown of SLC17A9. […] The amounts of SCL17A9 mRNA in the knocked-down cells (RNAi) and control cells (control) were measured by real-time PCR, and as shown in FIG. 19(A), the amount of SLC17A9 mRNA was decreased by RNAi.

PC12 cells = assay: KCl-dependent ATP release after SLC17A9 knockdown; assay type: cell-based, rat; settings: 25 nM siRNA, 3 days, KCl stimulus 30 minutes, FIG. 19(B)
Description: as §1

[1] = substrate: Nc1ncnc2c1ncn2[C@@H]1O[C@H](COP(=O)(O)OP(=O)(O)OP(=O)(O)O)[C@@H](O)[C@H]1O; assay: purified protein, by the assay type; settings: other: reconstituted mSLC17A9, membrane potential-dependent transport, calculated using KaleidaGraph; pH 7.0; 27.0 °C
[2] = substrate: Nc1ncnc2c1ncn2[C@@H]1O[C@H](COP(=O)(O)OP(=O)(O)OP(=O)(O)O)[C@@H](O)[C@H]1O; assay: cells, lysate or membranes named; settings: other: human SLC17A9 proteoliposomes, ATP uptake at various concentrations; pH 7.0; 27.0 °C

Molecule: Nc1ncnc2c1ncn2[C@@H]1O[C@H](COP(=O)(O)OP(=O)(O)O)[C@@H](O)[C@H]1O [ADP, adenosine diphosphate]
- inhibition of radioactive ATP uptake (mouse SLC17A9 (mSLC17A9)): compete with ATP
- uptake of ADP and GTP into SLC17A9 reconstituted proteoliposomes over time (human SLC17A9): actually taken up
- effect of nucleotides on ATP transport (human SLC17A9): recognized as transport substrates

Molecule: Nc1nc2c(ncn2[C@@H]2O[C@H](COP(=O)(O)OP(=O)(O)OP(=O)(O)O)[C@@H](O)[C@H]2O)c(=O)[nH]1 [GTP]
- inhibition of radioactive ATP uptake (mouse SLC17A9 (mSLC17A9)): compete with ATP
- uptake of ADP and GTP into SLC17A9 reconstituted proteoliposomes over time (human SLC17A9): actually taken up
- effect of nucleotides on ATP transport (human SLC17A9): recognized as transport substrates

Molecule: SLC17A9 RNAi: RNAi of sequence UAUUCGAGAGAAUGUCACG (SEQ ID NO: 15) for knockdown of SLC17A9 (listed as RNA, chemistry not given here)
- amount of SLC17A9 mRNA (SLC17A9 mRNA): decreased
- KCl-dependent ATP release (PC12 cells): suppressed

B1: mouse SLC17A9 (mSLC17A9) (Mus musculus) (protein)
chain: MPSQRSSLMQPIPEETRKTPSAAAEDTRWSRPECQAWTGILLLGTCLLYCARVTMPVCTVAMSQDFGWNKKEAGIVLSSFFWGYCLTQVVGGHLGDRIGGEKVILLSASAWGFITVTTPLLAHLGSGHLAFLTFSRILTGLLQGVYFPALTSLLSQKVQESERAFTYSTVGAGSQVGTLVTGGVGSVLLDQCGWQSVFYFSGGLTLLWAYYVYRYLLNEKDLVLALGFLAQGLPVTKPSKVPWRQLFRKASVWAAICSQLCSACSFFILLSWLPTFFKETFPNSKGWVFNVVPWMLAIPASLFSGFISDRLISQGYRVITVRKFMQVMGLGLSSIFALCLGHTTSFLKAMIFASASIGFQTFNHSGISVNIQDLAPSCAGFLFGVANTAGALAGVVGVCLSGYLIETTGSWTCVFHLVAIISNLGLGTFLVFGKAQRVDLVPTHEDL
- Km [1]: 230 µM
- Vmax [1]: 23.8 nmol/min/mg of protein

B2: human SLC17A9 (Homo sapiens; N228S) (protein)
chain: MTLTSRRQDSQEARPECQAWTGTLLLGTCLLYCARSSMPICTVSMSQDFGWNKKEAGIVLSSFFWGYCLTQVVGGHLGDRIGGEKVILLSASAWGSITAVTPLLAHLSSAHLAFMTFSRILMGLLQGVYFPALTSLLSQKVRESERAFTYSIVGAGSQFGTLLTGAVGSLLLEWYGWQSIFYFSGGLTLLWVWYVYRYLLSEKDLILALGVLAQSRPVSRHSRVPWRRLFRKPAVWAAVVSQLSAACSFFILLSWLPTFFEETFPDAKGWIFNVVPWLVAIPASLFSGFLSDHLINQGYRAITVRKLMQGMGLGLSSVFALCLGHTSSFCESVVFASASIGLQTFNHSGISVNIQDLAPSCAGFLFGVANTAGALAGVVGVCLGGYLMETTGSWTCLFNLVAIISNLGLCTFLVFGQAQRVDLSSTHEDL
- Km [2]: 800 µM
